In ChEMBL document CHEMBL5620353, “Novel antifungal triazoles with alkynyl-methoxyl side chains: Design, synthesis, and biological activity evaluation” (Eur J Med Chem, 2023):
Converted amounts (≈) assume the structure as drawn.

What was measured:
Saccharomyces cerevisiae [1] = assay: Antifungal activity against recombinant Saccharomyces cerevisiae Y525 overexpressing CaMdr1 assessed as inhibition of fungal growth incubated for 48 hrs by microbroth dilution method; type: functional
Saccharomyces cerevisiae [2] = assay: Antifungal activity against recombinant Saccharomyces cerevisiae Y570 overexpressing CaCdr1 assessed as inhibition of fungal growth incubated for 48 hrs by microbroth dilution method; type: functional
Saccharomyces cerevisiae [3] = assay: Antifungal activity against recombinant Saccharomyces cerevisiae Y2411 overexpressing ScErg11 assessed as inhibition of fungal growth incubated for 48 hrs by microbroth dilution method; type: functional
Saccharomyces cerevisiae [4] = assay: Antifungal activity against recombinant Saccharomyces cerevisiae Y2300 overexpressing ScErg11 assessed as inhibition of fungal growth incubated for 48 hrs by microbroth dilution method; type: functional
Saccharomyces cerevisiae [5] = assay: Antifungal activity against recombinant Saccharomyces cerevisiae Y2301 overexpressing ScErg11 Y140F assessed as inhibition of fungal growth incubated for 48 hrs by microbroth dilution method; type: functional
Saccharomyces cerevisiae [6] = assay: Antifungal activity against recombinant Saccharomyces cerevisiae Y2513 overexpressing ScErg11 Y140H assessed as inhibition of fungal growth incubated for 48 hrs by microbroth dilution method; type: functional
Saccharomyces cerevisiae [7] = assay: Antifungal activity against recombinant Saccharomyces cerevisiae Y2374 overexpressing CgErg11 assessed as inhibition of fungal growth incubated for 48 hrs by microbroth dilution method; type: functional
Saccharomyces cerevisiae [8] = assay: Antifungal activity against recombinant Saccharomyces cerevisiae Y2462 overexpressing ScErg11 ScNcp1 assessed as inhibition of fungal growth incubated for 48 hrs by microbroth dilution method; type: functional
Saccharomyces cerevisiae [9] = assay: Antifungal activity against recombinant Saccharomyces cerevisiae Y2459 overexpressing CaErg11 CaCpr assessed as inhibition of fungal growth incubated for 48 hrs by microbroth dilution method; type: functional
Saccharomyces cerevisiae [10] = assay: Antifungal activity against recombinant Saccharomyces cerevisiae Y2721 overexpressing CpErg11 CpCpr assessed as inhibition of fungal growth incubated for 48 hrs by microbroth dilution method; type: functional
Saccharomyces cerevisiae [11] = assay: Antifungal activity against recombinant Saccharomyces cerevisiae Y2716 overexpressing CpErg11 Y132F CpCpr assessed as inhibition of fungal growth incubated for 48 hrs by microbroth dilution method; type: functional
Candida albicans [12] = assay: Antifungal activity against Candida albicans SC5314 assessed as inhibition of fungal growth incubated for 48 hrs by microbroth dilution method; type: functional
Candida albicans [13] = assay: Antifungal activity against Candida albicans 10231 assessed as inhibition of fungal growth incubated for 48 hrs by microbroth dilution method; type: functional
Nakaseomyces glabratus = assay: Antifungal activity against Candida glabrata 537 assessed as inhibition of fungal growth incubated for 48 hrs by microbroth dilution method; type: functional
Candida parapsilosis = assay: Antifungal activity against Candida parapsilosis 22019 assessed as inhibition of fungal growth incubated for 48 hrs by microbroth dilution method; type: functional; conditions: Lodderomyces parapsilosis
Pichia kudriavzevii = assay: Antifungal activity against Candida krusei 4996 assessed as inhibition of fungal growth incubated for 48 hrs by microbroth dilution method; type: functional
Candida tropicalis = assay: Antifungal activity against Candida tropicalis 8915 assessed as inhibition of fungal growth incubated for 48 hrs by microbroth dilution method; type: functional
Cryptococcus neoformans = assay: Antifungal activity against Cryptococcus neoformans 32,609 assessed as inhibition of fungal growth incubated for 72 hrs by microbroth dilution method; type: functional
Aspergillus fumigatus = assay: Antifungal activity against Aspergillus fumigatus 7544 assessed as inhibition of fungal growth incubated for 72 hrs by microbroth dilution method; type: functional
Candida albicans [14] = assay: Antifungal activity against fluconazole-resistant Candida albicans 901 assessed as inhibition of fungal growth incubated for 48 hrs by microbroth dilution method; type: functional
Candida albicans [15] = assay: Antifungal activity against fluconazole-resistant Candida albicans 904 assessed as inhibition of fungal growth incubated for 48 hrs by microbroth dilution method; type: functional
[Candida] auris [16] = Antifungal activity against fluconazole-resistant Candida auris 891 assessed as inhibition of fungal growth incubated for 48 hrs by microbroth dilution method; type: functional; conditions: Candidozyma auris
[Candida] auris [17] = Antifungal activity against fluconazole-resistant Candida auris 918 assessed as inhibition of fungal growth incubated for 48 hrs by microbroth dilution method; type: functional; conditions: Candidozyma auris
[Candida] auris [18] = Antifungal activity against fluconazole-resistant Candida auris 919 assessed as inhibition of fungal growth incubated for 48 hrs by microbroth dilution method; type: functional; conditions: Candidozyma auris
[19] = Cytotoxicity against HUVEC cells assessed as cell survival at <16 ug/ml incubated for 24 hrs by CCK-8 assay relative to control; type: toxicity, cell-based; conditions: human, dose < 16 µg/ml, read-out: Survival
[20] = Cytotoxicity against HUVEC cells assessed as cell survival at 128 ug/ml incubated for 24 hrs by CCK-8 assay relative to control; type: toxicity, cell-based; conditions: human, at 128 µg/mL, read-out: Survival
[21] = Hemolytic activity in rabbit RBC at 32 ug/ml incubated for 1 hr by absorbance based analysis; type: toxicity, cell-based, Oryctolagus cuniculus, Erythrocyte; conditions: rabbit red blood cells, at 32 µg/mL, read-out: Activity

| SMILES | MIC (Saccharomyces cerevisiae [1]) [µg/mL] | MIC (Saccharomyces cerevisiae [2]) [µg/mL] | MIC (Saccharomyces cerevisiae [3]) [µg/mL] | MIC (Saccharomyces cerevisiae [4]) [µg/mL] | MIC (Saccharomyces cerevisiae [5]) [µg/mL] | MIC (Saccharomyces cerevisiae [6]) [µg/mL] | MIC (Saccharomyces cerevisiae [7]) [µg/mL] | MIC (Saccharomyces cerevisiae [8]) [µg/mL] | MIC (Saccharomyces cerevisiae [9]) [µg/mL] | MIC (Saccharomyces cerevisiae [10]) [µg/mL] | MIC (Saccharomyces cerevisiae [11]) [µg/mL] | also measured |
| --- | --- | --- | --- | --- | --- | --- | --- | --- | --- | --- | --- | --- |
| CC[C@@H]([C@H](C)O)n1ncn(-c2ccc(N3CCN(c4ccc(OC[C@@H]5CO[C@@](Cn6cncn6)(c6ccc(F)cc6F)C5)cc4)CC3)cc2)c1=O [POSACONAZOLE] | 1 | 16 | 0.5 | 2 | 2 | 1 | 1 | 2 | 2 | 1 | 1 | – |
| C[C@@H](c1nc(-c2ccc(C#N)cc2)cs1)[C@](O)(Cn1cncn1)c1ccc(F)cc1F [RAVUCONAZOLE] | 0.125 | 32 | 0.008 | 0.063 | 0.063 | 0.016 | 0.063 | 0.063 | 0.016 | 0.031 | 0.031 | MIC (Candida albicans [12]): 0.25 µg/mL (≈ 0.571 µM); MIC (Candida albicans [13]): 16 µg/mL (≈ 36.6 µM); MIC (Nakaseomyces glabratus): ≤ 0.125 µg/mL; MIC (Candida parapsilosis): ≤ 0.125 µg/mL; MIC (Pichia kudriavzevii): ≤ 0.125 µg/mL; MIC (Candida tropicalis): 4 µg/mL (≈ 9.14 µM); MIC (Cryptococcus neoformans): ≤ 0.125 µg/mL; MIC (Aspergillus fumigatus): 0.25 µg/mL (≈ 0.571 µM); MIC (Candida albicans [14]): 16 µg/mL (≈ 36.6 µM); MIC (Candida albicans [15]): 16 µg/mL (≈ 36.6 µM); MIC ([Candida] auris [16]): 1 µg/mL (≈ 2.29 µM); MIC ([Candida] auris [17]): 1 µg/mL (≈ 2.29 µM); MIC ([Candida] auris [18]): 1 µg/mL (≈ 2.29 µM) |
| C[C@@H]1[C@H](O)[C@@H](C)/C=C/C=C/C=C/C=C/C=C/C=C/C=C/[C@H](O[C@@H]2O[C@H](C)[C@@H](O)[C@H](N)[C@@H]2O)C[C@@H]2O[C@](O)(C[C@@H](O)C[C@@H](O)[C@H](O)CC[C@@H](O)C[C@@H](O)CC(=O)O[C@H]1C)C[C@H](O)[C@H]2C(=O)O [AMPHOTERICIN B] | – | – | – | – | – | – | – | – | – | – | – | viability at 24 h [19]: 50%; viability at 24 h, 128 ug/ml [20]: 26.1%; hemolysis at 1 h, 32 ug/ml [21]: > 50% |
